Results reported in US20240199548A1, “NOVEL COMPOUNDS USEFUL AS STING AGONISTS AND USES THEREOF” (Jacobio Pharmaceuticals Co., Ltd., priority 2021, published 2024).

Target: human STING WT protein (Homo sapiens, UniProt Q86WV6)
Test: Human STING WT binding assay (Cisbio HTRF)
Conditions: HTRF competition with STING WT ligand d2, 6 His-tagged human STING WT, 3 hours at RT; read-out: hSTING WT binding IC50
Protocol: Example A: Human STING WT Binding Assay
Cisbio Bioassays' human STING WT binding assay (#64 BDSTGPEG & 64 BDSTGPEH, Cisbio) is for quantitative measurement of human STING WT ligand using HTRF® technology.
Negative control: Dispense 5 μL of diluent into each negative control well. Standard: Dispense 5 μL of each Human STING WT Standard 2′3′-cGAMP (Std 0-Std 7) into each standard well. Compound: Dispense 5 μL of compound into each compound well.
Negative control: Add 5 μL of detection buffer to all wells. Other wells: Add 5 μL of human STING WT protein 6 His-tagged protein to all wells.
Add 10 μL of premixed STING WT ligand d2 reagent and 6 His Tb antibody working solution to all wells.
Seal the plate and incubate 3 hours at RT or at Over Night if necessary.
Remove the plate sealer and read on an HTRF® compatible reader (PerkinElmer, USA). Results were analyzed with a two-wavelength signal ratio:intensity (665 nm)/intensity (620 nm).
Fit the data in GraphPad to obtain IC50 values using equation (2)
Y=Bottom+(Top−Bottom)/(1+10^((Log IC50−X)*Hill Slope)) Equation (2)
Y is HTRF Ratio and X is compound concentration.

Chain of human STING WT protein (Q86WV6 whole entry H232R): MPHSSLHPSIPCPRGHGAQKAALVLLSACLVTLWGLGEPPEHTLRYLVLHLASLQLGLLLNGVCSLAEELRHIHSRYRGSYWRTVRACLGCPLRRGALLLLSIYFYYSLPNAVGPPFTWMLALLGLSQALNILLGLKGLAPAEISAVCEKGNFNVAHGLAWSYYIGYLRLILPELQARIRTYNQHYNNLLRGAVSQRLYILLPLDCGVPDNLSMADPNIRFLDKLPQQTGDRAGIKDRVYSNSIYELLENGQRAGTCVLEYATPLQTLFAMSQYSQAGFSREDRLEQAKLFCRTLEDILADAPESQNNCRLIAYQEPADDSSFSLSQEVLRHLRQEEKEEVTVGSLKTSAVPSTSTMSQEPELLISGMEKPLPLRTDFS

| Compound | IC50 [nM] |
| --- | --- |
| COc1cc2c(cc1OCCCOc1c(OC)cc3c(c1F)CN(C(=O)CCC(=O)O)C3)CN(C(=O)CCC(=O)O)C2 [Example 4, 4-(5-(3-((2-(3-carboxypropanoyl)-4-fluoro-6-methoxyisoindolin-5-yl)oxy)propoxy)-6-methoxyisoindolin-2-yl)-4-oxobutanoic Acid] | 0.68 |
| COc1cc2c(cc1OCCCOc1cc3c(cc1OC)CN(C(=O)C[C@H](C)C(=O)O)C3)CN(C(=O)CCC(=O)O)C2 [Example 3, Sodium (S)-4-(5-(3-((2-(3-carboxylatopropanoyl)-6-methoxyisoindolin-5-yl)oxy)propoxy)-6-methoxyisoindolin-2-yl)-2-methyl-4-oxobutanoate] | 1.63 |
| COc1cc2c(c(F)c1OCCCOc1c(OC)cc3c(c1Cl)CN(C(=O)CCC(=O)O)C3)CN(C(=O)CCC(=O)O)C2 [Example 13, 4-(5-(3-((2-(3-carboxypropanoyl)-4-chloro-6-methoxyisoindolin-5-yl)oxy)propoxy)-4-fluoro-6-methoxyisoindolin-2-yl)-4-oxobutanoic acid] | 149 |
| C=C(COc1cc2c(cc1OC)CN(C(=O)CCC(=O)O)C2)COc1cc2c(cc1OC)CN(C(=O)CCC(=O)O)C2 [Example 10, 4,4′-(((2-methylenepropane-1,3-diyl)bis(oxy))bis(6-methoxyisoindoline-5,2-diyl))bis(4-oxobutanoic acid)] | 150 |
| COc1cc2c(cc1OCCCOc1cc3c(cc1OC)CN(C(=O)CCC(=O)O)C3)CN(C(=O)CCC(=O)O)C2 [Example 1, 4,4′-((propane-1,3-diylbis(oxy))bis(6-methoxyisoindoline-5,2-diyl))bis(4-oxobutanoic Acid)] | < 0.1 |
| COc1cc2c(nc1OCCCOc1nc3c(cc1OC)CN(C(=O)CCC(=O)O)C3)CN(C(=O)CCC(=O)O)C2 [Example 5, 4,4′-((propane-1,3-diylbis(oxy))bis(3-methoxy-5,7-dihydro-6H-pyrrolo[3,4-b]pyridine-2,6-diyl))bis(4-oxobutanoic Acid)] | 3.28 |
| COc1cc2c(cc1OCCCOc1cc3c(cc1OC)CN(C(=O)NCCC(=O)O)C3)CN(C(=O)CCC(=O)O)C2 [Example 14, 4-(5-(3-((2-((2-carboxyethyl)carbamoyl)-6-methoxyisoindolin-5-yl)oxy)propoxy)-6-methoxyisoindolin-2-yl)-4-oxobutanoic acid] | 144 |
| COc1cc2c(cc1OCCCOc1cc3c(c(F)c1OC)CN(C(=O)CCC(=O)O)C3)CN(C(=O)CCC(=O)O)C2 [Example 2, 4-(6-(3-((2-(3-carboxypropanoyl)-6-methoxyisoindolin-5-yl)oxy)propoxy)-4-fluoro-5-methoxyisoindolin-2-yl)-4-oxobutanoic Acid] | 33.7 |
| COc1cc2c(c(F)c1OCCCOc1c(OC)cc3c(c1F)CN(C(=O)CCC(=O)O)C3)CN(C(=O)CCC(=O)O)C2 [Example 9, 4,4′-((propane-1,3-diylbis(oxy))bis(4-fluoro-6-methoxyisoindoline-5,2-diyl))bis(4-oxobutanoic acid)] | 0.32 |
